Source: publication PMC12627933, “A First-In-Human Study of the SUMOylation Inhibitor Subasumstat in Patients with Advanced/Metastatic Solid Tumors or Relapsed/Refractory Hematologic Malignancies” (Cancer Research Communications, 2025)

Assay: Safety: treatment-emergent adverse events (NCI CTCAE v5.0; CRS per ASTCT), phase I/II study NCT03648372
Type: in vivo
Protocol: This study comprised two parts: a phase I dose escalation and a phase II dose expansion (Fig. 1). In the dose-escalation phase, patients were enrolled to receive subasumstat intravenously as a 1-hour (±10 minutes) infusion on days 1, 4, 8, and 11 of a 21-day cycle (biweekly schedule). […] Dose escalation was based on cohort with an adaptive design using Bayesian logistic regression modeling with overdose control. The starting dose of subasumstat was based on Good Laboratory Practice animal toxicity studies and supported by the estimation of a minimum anticipated biologically effective level. A detailed description of dose-limiting toxicities (DLT) is presented in the Supplementary Methods.
The phase II dose-expansion portion enrolled patients to receive the recommended phase II dose (RP2D) determined in phase I, with each cohort assessed separately using an adaptive two-stage design for a single proportion (see Supplementary Methods). For stage 1, each cohort was analyzed when a prespecified number of patients were enrolled and had the potential to have at least one posttreatment scan [i.e., after the first disease assessment, 2 months from cycle 1 day 1 (C1D1)]. If the prespecified minimal response rate was not achieved in the first stage for a given cohort, that cohort would be closed to enrollment. […] The final analysis of the primary endpoints for each cohort would take place when all ongoing patients had the opportunity to complete the 6-month disease assessment. Across both phases, patients received subasumstat for up to 1 year or until confirmed disease progression, unacceptable toxicity, if any withdrawal criterion from the study was met, or if discontinuation of subasumstat occurred.
The occurrence of DLTs was assessed during cycle 1 (DLTs are described in the Supplementary Methods). Treatment-emergent adverse events (TEAE) were graded according to NCI Common Terminology Criteria for Adverse Events version 5.0, except for cytokine release syndrome (CRS), which was graded according to the American Society for Transplantation and Cellular Therapy Consensus Grading for CRS ([20]).
It was anticipated that approximately 70 DLT-evaluable patients would be enrolled for dose escalation. The safety analysis set included all patients who received at least one dose, even if incomplete, of subasumstat. […] The overall response rate (ORR) was defined as the proportion of patients who achieved complete response and partial response (PR) during the study. The disease control rate (DCR) was defined as the proportion of patients who achieved […] as per RECIST v1.1 for solid tumors or Lugano classification for lymphomas. […] Progression-free survival was summarized descriptively using the Kaplan–Meier method.

Cc1sc(C(=O)c2cncnc2N[C@@H]2C[C@H](COS(N)(=O)=O)[C@@H](O)C2)cc1[C@@H]1NCCc2ccc(Cl)cc21 [subasumstat]
Subasumstat-related TEAE: Nausea (Phase II (n = 25)): 4 (16.0) n (%) | Subasumstat-related TEAE: Pyrexia (Phase II (n = 25)): 9 (36.0) n (%) | Subasumstat-related TEAE: Vomiting (Phase II (n = 25)): 1 (4.0) n (%) | TEAE: Abdominal distension (Phase II (n = 25)): 1 (4.0) n (%) | TEAE: Abdominal pain (Phase II (n = 25)): 4 (16.0) n (%) | TEAE: Anemia (Phase II (n = 25)): 7 (28.0) n (%) | TEAE: Arthralgia (Phase II (n = 25)): 5 (20.0) n (%) | TEAE: Back pain (Phase II (n = 25)): 2 (8.0) n (%) | TEAE: CRS (Phase II (n = 25)): 3 (12.0) n (%) | TEAE: Chills (Phase II (n = 25)): 8 (32.0) n (%) | TEAE: Constipation (Phase II (n = 25)): 2 (8.0) n (%) | TEAE: Decreased appetite (Phase II (n = 25)): 5 (20.0) n (%) | TEAE: Dehydration (Phase II (n = 25)): 2 (8.0) n (%) | TEAE: Diarrhea (Phase II (n = 25)): 10 (40.0) n (%) | TEAE: Dyspnea (Phase II (n = 25)): 4 (16.0) n (%) | TEAE: Fatigue (Phase II (n = 25)): 9 (36.0) n (%) | TEAE: Headache (Phase II (n = 25)): 7 (28.0) n (%) | TEAE: Hypophosphatemia (Phase II (n = 25)): 0 n (%) | TEAE: Insomnia (Phase II (n = 25)): 2 (8.0) n (%) | TEAE: Nausea (Phase II (n = 25)): 4 (16.0) n (%) | TEAE: Peripheral edema (Phase II (n = 25)): 2 (8.0) n (%) | TEAE: Pleural effusion (Phase II (n = 25)): 3 (12.0) n (%) | TEAE: Pyrexia (Phase II (n = 25)): 11 (44.0) n (%) | TEAE: Stomatitis (Phase II (n = 25)): 3 (12.0) n (%) | TEAE: Vomiting (Phase II (n = 25)): 2 (8.0) n (%) | TEAEs (Phase II (n = 25)): 24 (96.0) n (%) | TEAEs leading to discontinuation (Phase II (n = 25)): 4 (16.0) n (%) | TEAEs leading to discontinuation related to subasumstat (Phase II (n = 25)): 1 (4.0) n (%) | TEAEs related to subasumstat (Phase II (n = 25)): 22 (88.0) n (%) | AESI (adverse event of special interest) (Total (N = 109)): 12 (11.0) n (%) | AESI related to subasumstat (Total (N = 109)): 12 (11.0) n (%) | AESI: CRS (Total (N = 109)): 12 (11.0) n (%) | Grade ≥3 TEAE: Abdominal pain (Total (N = 109)): 6 (5.5) n (%) | Grade ≥3 TEAE: Acute kidney injury (Total (N = 109)): 4 (3.7) n (%) | Grade ≥3 TEAE: Anemia (Total (N = 109)): 14 (12.8) n (%) | Grade ≥3 TEAE: Aspartate aminotransferase increased (Total (N = 109)): 2 (1.8) n (%) | Grade ≥3 TEAE: Blood bilirubin increased (Total (N = 109)): 2 (1.8) n (%) | Grade ≥3 TEAE: Dyspnea (Total (N = 109)): 4 (3.7) n (%) | Grade ≥3 TEAE: Fatigue (Total (N = 109)): 5 (4.6) n (%) | Grade ≥3 TEAE: Hyperbilirubinemia (Total (N = 109)): 2 (1.8) n (%) | Grade ≥3 TEAE: Hypertension (Total (N = 109)): 2 (1.8) n (%) | Grade ≥3 TEAE: Hypokalemia (Total (N = 109)): 7 (6.4) n (%) | Grade ≥3 TEAE: Hypomagnesemia (Total (N = 109)): 2 (1.8) n (%) | Grade ≥3 TEAE: Hypophosphatemia (Total (N = 109)): 2 (1.8) n (%) | Grade ≥3 TEAE: Lymphocyte count decreased (Total (N = 109)): 5 (4.6) n (%) | Grade ≥3 TEAE: Lymphopenia (Total (N = 109)): 2 (1.8) n (%) | Grade ≥3 TEAE: Muscular weakness (Total (N = 109)): 2 (1.8) n (%) | Grade ≥3 TEAE: Nausea (Total (N = 109)): 2 (1.8) n (%) | Grade ≥3 TEAE: Neutropenia (Total (N = 109)): 4 (3.7) n (%) | Grade ≥3 TEAE: Platelet count increased (Total (N = 109)): 3 (2.8) n (%) | Grade ≥3 TEAE: Pleural effusion (Total (N = 109)): 2 (1.8) n (%) | Grade ≥3 TEAE: Pneumonia (Total (N = 109)): 2 (1.8) n (%) | Grade ≥3 TEAE: Pneumonitis (Total (N = 109)): 2 (1.8) n (%) | Grade ≥3 TEAE: Pyrexia (Total (N = 109)): 2 (1.8) n (%) | Grade ≥3 TEAE: Small intestinal obstruction (Total (N = 109)): 4 (3.7) n (%) | Grade ≥3 TEAE: Thrombocytopenia (Total (N = 109)): 2 (1.8) n (%) | Grade ≥3 TEAE: Vomiting (Total (N = 109)): 4 (3.7) n (%) | Grade ≥3 TEAEs (Total (N = 109)): 66 (60.6) n (%) | Grade ≥3 TEAEs related to subasumstat (Total (N = 109)): 29 (26.6) n (%) | On-study deaths (Total (N = 109)): 12 (11.0) n (%) | Patients with at least one grade ≥3 TEAE (Total (N = 109)): 66 (60.6) n (%) | Serious adverse events (Total (N = 109)): 48 (44.0) n (%) | Serious adverse events related to subasumstat (Total (N = 109)): 12 (11.0) n (%) | TEAE: Abdominal distension (Total (N = 109)): 12 (11.0) n (%) | TEAE: Abdominal pain (Total (N = 109)): 21 (19.3) n (%) | TEAE: Anemia (Total (N = 109)): 19 (17.4) n (%) | TEAE: Arthralgia (Total (N = 109)): 17 (15.6) n (%) | TEAE: Back pain (Total (N = 109)): 14 (12.8) n (%) | TEAE: CRS (Total (N = 109)): 12 (11.0) n (%) | TEAE: Chills (Total (N = 109)): 28 (25.7) n (%)
